Test results: patent publication US11534457B2, “Use of dextran sulfate” (priority 2017, dated 2022)
Marks after values point to notes of the source that are not given here.

System: severe traumatic brain injury (sTBI)
Experiment: sTBI in rats, HPLC of purine-pyrimidine / energy metabolites in brain (Example 3)
Type: in vivo, Male Wistar rats
Conditions: sacrifice 7 days
Procedure: The experimental protocol used in this study was approved by the Ethical Committee of the Catholic University of Rome, according to international standards and guidelines for animal care. Male Wistar rats of 300-350 g body weight (b.w.) were fed with standard laboratory diet and water ad libitum in a controlled environment.
1) n=6 animals subjected to sTBI, with drug administration after 30 minutes and sacrifice at 2 days post-TBI (Acute phase 1)
2) n=6 animals subjected to severe-TBI, with drug administration after 30 minutes and sacrifice at 7 days post-TBI (Acute phase 2).
3) n=6 animals subjected to severe-TBI, with drug administration after 3 days and sacrifice at 7 days post-TBI (Chronic phase).
As the anesthetic mixture, animals received 35 mg/kg b.w. ketamine and 0.25 mg/kg b.w. midazolam by i.p. injection. sTBI was induced by dropping a 450 g weight from 2 m height on to the rat head that had been protected by a metal disk previously fixed on the skull, according to the “weight drop” impact acceleration model (Marmarou et al., A new model of diffuse brain injury in rats. Part I: Pathophysiology and biomechanics. J Neurosurg. 1994; 80: 291-300). […] At the end of each period of treatment, rats were anesthetized again and then immediately sacrificed.
The drug treatment was a subcutaneous injection of 0.5 ml of LMW-DS (15 mg/kg) and administered according to the aforementioned schematic protocol.
An in vivo craniectomy was performed in all animals during anesthesia, after carefully removing the rat's skull, the brain was exposed and removed with a surgical spatula and quickly dropped in liquid nitrogen. After the wet weight (w.w.) determination, tissue preparation was affected as previously disclosed (Tavazzi et al., Cerebral oxidative stress and depression of energy metabolism correlate with severity of diffuse brain injury in rats. Neurosurgery. 2005; 56: 582-589; Vagnozzi et al., Temporal window of metabolic brain vulnerability to concussions: mitochondrial-related impairment-part I. Neurosurgery. 2007; 61: 379-388; Tavazzi et al., Temporal window of metabolic brain vulnerability to concussions: oxidative and nitrosative stresses-part II. Neurosurgery. 2007; 61: 390-395; Amorini et al., Severity of experimental traumatic brain injury modulates changes in concentrations of cerebral free amino acids. J Cell Mol Med. 2017; 21: 530-542.). Briefly, whole brain homogenization was performed with 7 ml of ice-cold, nitrogen-saturated, precipitating solution composed by CH3CN+10 mM KH2PO4, pH 7.40, (3:1; v:v), and using an Ultra-Turrax set at 24,000 rpm/min (Janke & Kunkel, Staufen, Germany). After centrifugation at 20,690×g, for 10 min at 4° C., the clear supernatants were saved, pellets were supplemented with 3 ml of the precipitating solution and homogenized again as described above. A second centrifugation was performed (20,690×g, for 10 min at 4° C.), pellets were saved, supernatants combined with those previously obtained, extracted by vigorous agitation with a double volume of HPLC-grade CHCl3 and centrifuged as above. The upper aqueous phases containing water-soluble low-molecular weight compounds were collected, subjected to chloroform washings for two more times (this procedure allowed the removal of all the organic solvent and of any lipid soluble compound from the buffered tissue extracts), adjusted in volumes with 10 mM KH2PO4, pH 7.40, to have ultimately aqueous 10% tissue homogenates and saved at −80° C. until assayed. […]

[1] = Acute phase 2: 15 mg/kg s.c. 30 min post-sTBI
[2] = Chronic phase: 15 mg/kg s.c. 3 days post-sTBI

low molecular weight dextran sulfate [LMW-DS]
NO2, cerebral concentration [1]: 226.40 ± 30.95^b nmol/g (w.w.) | NO3, cerebral concentration [1]: 198.56 ± 25.93^e,i nmol/g (w.w.) | UDP, cerebral concentration [1]: 40.38 ± 8.50^a,i nmol/g (w.w.) | UDP-Gal, cerebral concentration [1]: 145.14 ± 27.76 nmol/g (w.w.) | UDP-GalNac, cerebral concentration [1]: 19.90 ± 3.12^a,e nmol/g (w.w.) | UDP-Glc, cerebral concentration [1]: 44.44 ± 7.59^i nmol/g (w.w.) | UDP-GlcNac, cerebral concentration [1]: 130.65 ± 28.41^a nmol/g (w.w.) | UMP, cerebral concentration [1]: 138.73 ± 32.01^b nmol/g (w.w.) | UTP, cerebral concentration [1]: 146.71 ± 32.68^e nmol/g (w.w.) | acetyl-CoA, cerebral concentration [1]: 36.86 ± 4.11^e nmol/g (w.w.) | adenine, cerebral concentration [1]: 58.16 ± 6.36^a,f nmol/g (w.w.) | ascorbic acid, cerebral concentration [1]: 3512.58 ± 224.62^a,e nmol/g (w.w.) | creatinine, cerebral concentration [1]: 37.27 ± 5.82^a,e,j nmol/g (w.w.) | cytidine, cerebral concentration [1]: 16.18 ± 4.21^e nmol/g (w.w.) | cytosine, cerebral concentration [1]: 15.70 ± 4.10^f nmol/g (w.w.) | guanine, cerebral concentration [1]: 4.73 ± 1.07 nmol/g (w.w.) | guanosine, cerebral concentration [1]: 17.90 ± 3.24^j nmol/g (w.w.) | hypoxanthine, cerebral concentration [1]: 12.90 ± 2.58^a,j nmol/g (w.w.) | inosine, cerebral concentration [1]: 85.52 ± 20.36^e nmol/g (w.w.) | malonyl-CoA, cerebral concentration [1]: 11.29 ± 2.27^b nmol/g (w.w.) | orotic acid, cerebral concentration [1]: 13.34 ± 3.65^a nmol/g (w.w.) | thymidine, cerebral concentration [1]: 0.49 ± 0.20^f nmol/g (w.w.) | uracil, cerebral concentration [1]: 19.40 ± 7.52^a,e nmol/g (w.w.) | uric acid, cerebral concentration [1]: 19.17 ± 2.15^a,h,i nmol/g (w.w.) | uridine, cerebral concentration [1]: 63.02 ± 9.66^b,e nmol/g (w.w.) | xanthine, cerebral concentration [1]: 10.41 ± 2.11^f nmol/g (w.w.) | β-pseudouridine, cerebral concentration [1]: 13.26 ± 3.16^a,e,j nmol/g (w.w.) | ADO, cerebral concentration [2]: 89.97 ± 12.98^a nmol/g (w.w.) | ADP, cerebral concentration [2]: 315.53 ± 46.53^a nmol/g (w.w.) | ADP-ribose, cerebral concentration [2]: 173.94 ± 8.45^a nmol/g (w.w.) | AMP, cerebral concentration [2]: 90.01 ± 21.24^a nmol/g (w.w.) | ATP, cerebral concentration [2]: 1381.03 ± 212.64^a nmol/g (w.w.) | CDP choline, cerebral concentration [2]: 8.37 ± 2.19 nmol/g (w.w.) | CDP, cerebral concentration [2]: 23.55 ± 6.45^a nmol/g (w.w.) | CMP, cerebral concentration [2]: 20.51 ± 3.73^a,f nmol/g (w.w.) | CTP, cerebral concentration [2]: 25.23 ± 2.93^a,f nmol/g (w.w.) | CoA-SH, cerebral concentration [2]: 27.58 ± 6.24^f nmol/g (w.w.) | GDP glucose, cerebral concentration [2]: 43.85 ± 5.06^b nmol/g (w.w.) | GDP, cerebral concentration [2]: 173.05 ± 28.68^a,e nmol/g (w.w.) | GMP, cerebral concentration [2]: 148.56 ± 31.21^a nmol/g (w.w.) | GSH, cerebral concentration [2]: 2608.67 ± 358.07^a,e nmol/g (w.w.) | GSSG, cerebral concentration [2]: 231.08 ± 44.34^b,f nmol/g (w.w.) | GTP, cerebral concentration [2]: 290.92 ± 34.68^a,f nmol/g (w.w.) | IMP, cerebral concentration [2]: 99.29 ± 13.82^a nmol/g (w.w.) | MDA, cerebral concentration [2]: 11.62 ± 3.90^a,e nmol/g (w.w.) | NADH, cerebral concentration [2]: 11.78 ± 3.32^e nmol/g (w.w.) | NADPH, cerebral concentration [2]: 7.34 ± 2.65^f nmol/g (w.w.) | NADP^+, cerebral concentration [2]: 16.44 ± 2.66^a,f nmol/g (w.w.) | NAD^+, cerebral concentration [2]: 301.13 ± 29.90^a nmol/g (w.w.) | NM, cerebral concentration [2]: 6375.36 ± 974.12^a,e nmol/g (w.w.) | NO2, cerebral concentration [2]: 217.67 ± 55.04^a nmol/g (w.w.) | NO3, cerebral concentration [2]: 241.27 ± 18.84^e nmol/g (w.w.) | UDP, cerebral concentration [2]: 57.40 ± 5.88^a,f nmol/g (w.w.) | UDP-Gal, cerebral concentration [2]: 122.29 ± 12.15 nmol/g (w.w.) | UDP-GalNac, cerebral concentration [2]: 21.84 ± 2.80^a,e nmol/g (w.w.) | UDP-Glc, cerebral concentration [2]: 35.79 ± 3.45^b nmol/g (w.w.) | UDP-GlcNac, cerebral concentration [2]: 129.42 ± 15.88^b nmol/g (w.w.) | UMP, cerebral concentration [2]: 103.11 ± 29.79 nmol/g (w.w.) | UTP, cerebral concentration [2]: 136.80 ± 33.25^f nmol/g (w.w.) | acetyl-CoA, cerebral concentration [2]: 35.68 ± 6.55^e nmol/g (w.w.) | adenine, cerebral concentration [2]: 52.94 ± 8.59^a,f nmol/g (w.w.) | ascorbic acid, cerebral concentration [2]: 3375.03 ± 856.41^a,e nmol/g (w.w.) | creatinine, cerebral concentration [2]: 51.25 ± 10.17^a,f nmol/g (w.w.) | cytidine, cerebral concentration [2]: 14.71 ± 2.83^e nmol/g (w.w.) | cytosine, cerebral concentration [2]: 15.58 ± 2.50^b,f nmol/g (w.w.) | guanine, cerebral concentration [2]: 5.31 ± 1.04^b nmol/g (w.w.) | guanosine, cerebral concentration [2]: 28.87 ± 7.60^a,f nmol/g (w.w.) | hypoxanthine, cerebral concentration [2]: 17.97 ± 4.49^a nmol/g (w.w.) | inosine, cerebral concentration [2]: 105.81 ± 25.57^f nmol/g (w.w.) | malonyl-CoA, cerebral concentration [2]: 10.00 ± 1.95^b nmol/g (w.w.) | orotic acid, cerebral concentration [2]: 12.05 ± 1.50^a nmol/g (w.w.) | thymidine, cerebral concentration [2]: 0.71 ± 0.11 nmol/g (w.w.) | uracil, cerebral concentration [2]: 16.57 ± 2.99^a,f nmol/g (w.w.) | uric acid, cerebral concentration [2]: 27.77 ± 3.60^a nmol/g (w.w.) | uridine, cerebral concentration [2]: 63.28 ± 3.37^f nmol/g (w.w.) | xanthine, cerebral concentration [2]: 9.35 ± 0.83^f nmol/g (w.w.) | β-pseudouridine, cerebral concentration [2]: 18.62 ± 2.80^a nmol/g (w.w.)
